Assay results from article PMC3003687, “α-Galactosylceramide Analogs with Weak Agonist Activity for Human iNKT Cells Define New Candidate Anti-Inflammatory Agents” (PLoS ONE, 2010).

Legend:
human iNKT cell clones [1] = assay: Cytokine ELISA of human iNKT cell clones stimulated with glycolipid-pulsed CD1d-transfected HeLa cells; type: cell-based; conditions: for dose inducing the lowest activation state (IL-13 and GM-CSF secretion): CD1d-transfected Hela cells and dendritic cells as APCs; for iNKT cell clone cytokine response / agonist activity: dose range, IFNγ, IL-4, IL-13, clones HDD3, HDD11, HDE3, HDA7
Experimental: Capture ELISA assays were used for measurement of cytokine responses of human iNKT cells to αGalCer analogs. One day prior to the experiment, CD1d transfected HeLa cells were plated at 25×10^3 cells/well in 100 µL of medium in flat-bottom 96 well plates. Glycolipids were then added in 100 µL of medium to give final concentrations ranging from 0.05 to 10^4 nM. The APCs were incubated for approximately 18 hours with the glycolipids and then irradiated (10,000 Rad) and washed twice with PBS prior to addition of 25×10^3 iNKT cells well in 300 µL. Supernatants were harvested after 24 hours of co-culture and stored frozen at -20°C. After thawing, aliquots of the supernatants were assayed for specific cytokines by ELISA using capture and biotin-labeled detection antibody pairs specific for GM-CSF, IL-2, IL-4, IL-12p70 and IL-13 (all obtained from BD Biosciences), IFNγ (Thermo-Scientific) or IL-18 (MBL). Specific signals were developed using HRP- conjugated streptavidin (BD Biosciences) and Turbo TMB substrate (Thermo-Scientific). Supernatants were tested pure and/or diluted to give values within a quantitative linear standard curve generated with recombinant cytokines. Curves of dose-dependent cytokine responses and graphs were plotted using the Graphpad Prism Software. EC50 values were calculated using the function log (agonist) response with variable slope, and statistical analyses were carried out using the same software. To calculate concentration-dependent cytokine ratios, IL-4/IFNγ and IL-13/IFNγ ratios were calculated using cytokine values from which background levels (i.e. levels in cultures receiving DMSO vehicle alone) were subtracted. Ratios were calculated by dividing IL-4 or IL-13 concentrations in pg/mL by IFNγ concentration in ng/mL.

human iNKT cell clones [2] = assay: Cytokine responses of iNKT cell clones, Hela-CD1d cells compared with monocyte-derived DC as APC; type: cell-based; conditions: limited analog concentrations
Description: CD1d-transfected Hela cells might not be representative of the presentation by DCs, so we performed a comparative analysis, with more limited analog concentrations, between Hela-CD1d cells and monocyte-derived DC (Supplementary Figure S5). […] However we observed a higher cytokine levels produced upon stimulation with Hela cells, which can be explained by a higher CD1d expression.
Supplementary file pone.0014374.s005.tif: Figure S5 Comparison of cytokine responses of human iNKT cell clones between CD1d-transfected HeLa cells and Dendritic Cells, with a limited range of analog concentrations. CD1d-transfected HeLa cells (black bars) and monocyte-derived DCs (white bars) were incubated overnight in parallel with increasing concentrations of KRN7000, C20:2 (tested from left to right at 0.1, 1, 10 and 100 nM,) and higher concentrations of other analogs (10, 100 nM, 1 and 10 µM), then used as APC for iNKT cell stimulation. After 24 h of co-culture, supernatants were harvested, and cytokine levels were measured by ELISA. The sensitivity of detection was 27.4 pg/mL for IL-4 and 82.3 pg/mL for IL-13 and IFNγ. The data shown were generated with a CD4+ iNKT cell clone (HDD3) and a double negative (DN, HDE3). (0.12 MB TIF) Click here for additional data file.

[3] = test system: iNKT cells in PBMCs from healthy donors; assay: Ex vivo staining of PBMCs from healthy donors with analog-loaded hCD1d tetramers; type: cell-based, human
Description: Our panel of clones might be limited to iNKT cells able to expand upon PHA stimulation and might be representative of a fraction only of the iNKT cell repertoire. […] The frequencies of iNKT cells measured using tetramers loaded with N-aromatic branched analogs were lower in some or all PBMCs tested. A lower detection might be explained by weaker efficiency of staining, since lower MFI values were also seen with iNKT cell clones stained with tetramers loaded with these glycolipids.
Figure 4 Ex vivo analysis of PBMC with CD1d tetramers loaded with αGalCer analogs. (A) Flow cytometric analyses were performed after labeling of PBMCs from healthy donors with hCD1d tetramers loaded with each of the indicated glycolipids. Representative dot plots generated with PBMCs from one normal donor, with the analog tested indicated at the top of each plot and the percentages of tetramer^+ CD3^+ cells indicated in the top right quadrants. The dot plots show events gating as live lymphocytes (PI negative and FSC/SSC gated lymphocytes). (B) Comparison of tetramer^+ cell frequencies in PBMC from three different donors. The frequencies of cells specifically stained with hCD1d tetramers loaded with the indicated glycolipids (or vehicle (Veh) only (i.e., DMSO)) are shown as the percentage of total iNKT cells (i.e., cells staining with mAb 6B11^+, specific for the invariant TCRα chain of iNKT cells). Similar results were obtained for three additional PBMC donors (not shown). TEXT PRINTED IN THE PICTURE: (A) Vehicle: 0.03 | (A) KRN7000: 0.56 | (A) C20:2: 0.52 | (A) C20:4: 0.58 | (A) Tol: 0.16 | (A) DFB: 0.56 | (A) BB: 0.29 | (A) AD: 0.49 DOUBTS OF THE COPYIST ABOUT THIS PICTURE: Panel A: the numbers in the upper right quadrants are printed without a measure or unit; only the axes (hCD1d tetramer / CD3) are printed

human iNKT cells = conditions: cited from earlier work
[4] = CD1d-transfected HeLa APC, 24 h co-culture, ELISA

Compound	dose inducing the lowest activation state (IL-13 and GM-CSF secretion) (human iNKT cell clones [1])	iNKT cell clone cytokine response / agonist activity (human iNKT cell clones [1])	agonist strength with Hela-CD1d cells and DC (human iNKT cell clones [2])	iNKT cell frequencies with loaded tetramers versus staining with Vα24Jα18 specific Ab 6B11 [3]	agonist activity for human iNKT cells (human iNKT cells)	EC50 (human iNKT cell clones [1]; Homo sapiens, iNKT, HDD3 clone, IL-4 levels did not reach a plateau)	concentration at which IL-13 production was induced (human iNKT cell clones [1]; [4])	concentration reaching maximal IL-13 production (human iNKT cell clones [1]; [4])	higher concentration required for IFNγ to be induced and reach plateau, relative to IL-13 (human iNKT cell clones [1]; [4])	concentration saturating IL-4 production (human iNKT cell clones [1]; CD1d-transfected HeLa APC, data not shown)
CCCCC/C=C\C/C=C\CCCCCCCCCC(=O)N[C@@H](CO[C@H]1O[C@H](CO)[C@H](O)[C@H](O)[C@H]1O)[C@H](O)[C@H](O)CCCCCCCCCCCCCC [C20:2]	< 1 nM	strong agonist activity	strong agonists	Comparable iNKT cell frequencies	strong agonist					
CCCCC/C=C\C/C=C\C/C=C\C/C=C\CCCC(=O)N[C@@H](CO[C@H]1O[C@H](CO)[C@H](O)[C@H](O)[C@H]1O)[C@H](O)[C@H](O)CCCCCCCCCCCCCC [C20:4]		substantially lower iNKT cell response		Comparable iNKT cell frequencies		> 10 µM				
CCCCCCCCCCCCCCCCCCCCCCCCCC(=O)N[C@@H](CO[C@H]1O[C@H](CO)[C@H](O)[C@H](O)[C@H]1O)[C@H](O)[C@H](O)CCCCCCCCCCCCCC [KRN7000, reference compound]	< 1 nM	strong agonist activity	strong agonists	Comparable iNKT cell frequencies			≤ 0.1 nM	approximately 1 nM	approximately 1 log	very high KRN7000 concentrations in the µM range
